In paper PMC9963675 (Proceedings of the National Academy of Sciences of the …, 2023):

What was measured:
WT C57Bl6/N mice = test: open field locomotor activity time-course in mice; assay type: in vivo; conditions: for potency, cumulative distance traveled over 60 min post i.p. injection: compared with MPH, cocaine, R-αPVP, R-MDPV and R-pyrovalerone; for duration of locomotor / psychomotor effects: open field time-course, i.p.
DAT [1] = target: T1, DAT (Homo sapiens, UniProt Q01959); test: saturation of [3H]DA uptake in presence of inhibitor; assay type: cell-based; conditions: 1 min uptake; cocaine and R-αPVP 250, 500, 1,000 nM; S-αPVP 5, 10, 20 nM
T1 sequence (Q01959 whole entry): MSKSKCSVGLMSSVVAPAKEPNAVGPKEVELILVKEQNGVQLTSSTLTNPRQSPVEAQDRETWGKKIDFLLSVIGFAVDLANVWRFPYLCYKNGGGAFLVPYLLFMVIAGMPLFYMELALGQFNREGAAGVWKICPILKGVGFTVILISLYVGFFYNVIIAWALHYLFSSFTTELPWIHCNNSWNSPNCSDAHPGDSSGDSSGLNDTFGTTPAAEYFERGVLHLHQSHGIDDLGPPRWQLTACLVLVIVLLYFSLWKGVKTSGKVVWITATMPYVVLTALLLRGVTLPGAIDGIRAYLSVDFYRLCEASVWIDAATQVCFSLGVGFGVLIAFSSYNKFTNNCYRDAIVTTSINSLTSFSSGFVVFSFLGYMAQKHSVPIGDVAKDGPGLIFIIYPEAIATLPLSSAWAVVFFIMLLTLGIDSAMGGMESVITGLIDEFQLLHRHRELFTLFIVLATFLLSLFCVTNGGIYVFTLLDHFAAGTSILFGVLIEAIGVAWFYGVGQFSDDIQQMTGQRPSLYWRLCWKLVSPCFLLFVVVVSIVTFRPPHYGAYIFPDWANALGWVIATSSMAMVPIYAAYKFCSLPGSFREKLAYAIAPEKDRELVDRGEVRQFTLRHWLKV

DAT [2] = target: T1, DAT; assay type: binding; conditions: DAT membranes
DAT [3] = target: T1, DAT; test: electrophysiological examination of DAT-mediated currents; assay type: cell-based; conditions: HEK293 cells expressing DAT, whole-cell

| Structure (SMILES) | duration of locomotor / psychomotor effects (WT C57Bl6/N mice) | other results |
| --- | --- | --- |
| CCCC(C(=O)c1ccc2c(c1)OCO2)N1CCCC1 (stereo not drawn) [S-MDPV, 3,4-methylenedioxypyrovalerone] | prolonged psychomotor effects | potency, cumulative distance traveled over 60 min post i.p. injection (WT C57Bl6/N mice): at least tenfold more potent |
| CCC[C@H](C(=O)c1ccc(C)cc1)N1CCCC1 [R-pyrovalerone, pyrovalerone] | much shorter duration of locomotor effects | – |
| CCC[C@@H](C(=O)c1ccc(C)cc1)N1CCCC1 [S-pyrovalerone, pyrovalerone] | prolonged psychomotor effects | potency, cumulative distance traveled over 60 min post i.p. injection (WT C57Bl6/N mice): at least tenfold more potent |
| COC(=O)[C@H]1[C@@H](OC(=O)c2ccccc2)C[C@@H]2CC[C@H]1N2C [cocaine] | much shorter duration of locomotor effects | effect on Km of DA uptake (DAT [1]): increases Km in dose-dependent manner; effect on Vmax of DA uptake (DAT [1]): does not decrease Vmax; effect on dissociation rate of [3H]WIN35428 (DAT [2]): not affected |
| NCCc1ccc(O)c(O)c1 [dopamine] | – | DAT-mediated inward currents (substrate activity) (DAT [3]): robust inward currents |
| COC(=O)C(c1ccccc1)C1CCCCN1 (stereo not drawn) [MPH, methylphenidate] | much shorter duration of locomotor effects | – |
| CCCC(C(=O)c1ccc2c(c1)OCO2)N1CCCC1 (stereo not drawn) [R-MDPV, 3,4-methylenedioxypyrovalerone] | much shorter duration of locomotor effects | – |
